What was measured:
HDAC2 = HDAC2 (Homo sapiens, UniProt Q92769); assay: ZEBRA flow cytometry in cells overexpressing FLAG-HDAC2; details: HH514-16, 1 μM YX968 or 3 mM NaB, 24 hours after treatment, N=3
[1] = system: EBV-positive HH514-16 Burkitt lymphoma cell line; assay: qPCR of late lytic gene BFRF3; assay type: cell-based; details: HH514-16, varying concentrations, 48 hours, vs DMSO (0.1%), N=3
Method: Cells were harvested, RNA was extracted, RNA was converted to cDNA, and qPCR was performed. Expression of BFRF3, a late lytic gene, is increased (FIG. 2). […] Progression of the lytic cycle to late lytic gene expression indicates availability of the early gene product needed to activate ganciclovir. N=3 biological replicates.

HH514-16 cells = assay: Cell death after exposure; assay type: cell-based; details: 1 μM, 72 hours, vs DMSO (0.1%), N=2
HDAC1 = HDAC1 (Homo sapiens, UniProt Q13547); assay: ZEBRA flow cytometry in cells overexpressing HDAC1-FLAG; details: HH514-16, 1 μM YX968, 24 hours after treatment, N=3
HDAC1, sequence (Q13547 whole entry): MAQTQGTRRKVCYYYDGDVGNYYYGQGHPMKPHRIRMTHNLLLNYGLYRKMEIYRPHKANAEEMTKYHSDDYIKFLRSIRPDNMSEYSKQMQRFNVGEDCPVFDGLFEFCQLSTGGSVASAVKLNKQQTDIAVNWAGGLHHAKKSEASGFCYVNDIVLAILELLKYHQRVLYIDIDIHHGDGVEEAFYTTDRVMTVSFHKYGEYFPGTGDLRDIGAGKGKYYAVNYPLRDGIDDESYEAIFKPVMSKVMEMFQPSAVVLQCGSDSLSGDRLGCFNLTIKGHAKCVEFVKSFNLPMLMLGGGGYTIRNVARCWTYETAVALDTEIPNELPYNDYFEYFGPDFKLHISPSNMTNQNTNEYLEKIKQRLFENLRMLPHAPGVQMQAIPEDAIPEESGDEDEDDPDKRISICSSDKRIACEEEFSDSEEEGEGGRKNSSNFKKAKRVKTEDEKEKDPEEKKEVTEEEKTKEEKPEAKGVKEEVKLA

BZLF1 promoter = assay: H3K27Ac chromatin immunoprecipitation and qPCR at the BZLF1 promoter; details: HH514-16, 1 μM, 12 hours, vs DMSO (0.1%)
[2] = system: lymphoma cell line BC1 latently infected with KSHV; assay type: cell-based
[3] = system: EBV-positive HH514-16 Burkitt lymphoma cell line; assay: ZEBRA staining by flow cytometry (EBV lytic reactivation); assay type: cell-based; details: HH514-16, varying concentrations, 24 hours, vs DMSO (0.1%)
From the text: Cells were harvested, fixed and permeabilized, stained with a monoclonal antibody to the viral latent-to-lytic switch protein ZEBRA (Bam Z EBV Replication Activator), and examined by flow cytometry. ZEBRA is an early lytic protein of EBV, encoded by BZLF1, that drives the lytic cascade. Cells were stained in parallel with an isotype-matched control antibody for placement of gates.

EBV = EBV viral load by qPCR for BALF5, normalized to 18S; assay type: cell-based; details: HH514-16, 1 μM YX968 for 18 hours, then ganciclovir 40 μM; vs no ganciclovir, N=2
Method: Ganciclovir was then added at a concentration of 40 μM. Cells were then centrifuged, DNA was extracted, and qPCR for BALF5—a single copy EBV gene—was then used to determine the viral load of EBV in the cells. The ribosomal gene 18S was used as the control to normalize for the number of cells collected. […] N=2 biological replicates.

HDAC2, sequence (Q92769 whole entry): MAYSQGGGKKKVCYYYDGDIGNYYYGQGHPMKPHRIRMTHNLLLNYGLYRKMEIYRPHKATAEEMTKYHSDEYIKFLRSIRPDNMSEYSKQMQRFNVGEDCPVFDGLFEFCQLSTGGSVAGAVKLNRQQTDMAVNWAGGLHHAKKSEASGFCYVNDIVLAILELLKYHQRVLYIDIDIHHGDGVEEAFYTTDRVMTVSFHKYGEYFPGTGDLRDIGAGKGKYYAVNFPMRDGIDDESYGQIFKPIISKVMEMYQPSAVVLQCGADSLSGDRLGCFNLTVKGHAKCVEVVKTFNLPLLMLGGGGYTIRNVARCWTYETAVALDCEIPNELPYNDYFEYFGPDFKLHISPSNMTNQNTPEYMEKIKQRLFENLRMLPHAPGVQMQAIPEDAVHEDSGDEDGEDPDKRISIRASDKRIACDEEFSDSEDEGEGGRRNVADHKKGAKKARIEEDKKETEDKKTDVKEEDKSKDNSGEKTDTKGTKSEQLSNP

Row | SMILES | ZEBRA expression post-induction, HDAC2 overexpressing vs not overexpressing cells (HDAC2) | expression of BFRF3, a late lytic gene [1] | cells left alive (HH514-16 cells) | number of cells that expressed ZEBRA, HDAC1 overexpressing (FLAG positive) vs FLAG negative (HDAC1) | amount of acetylated H3K27 at the BZLF1 promoter (fold enrichment vs control IgG) (BZLF1 promoter) | expression of immediate early gene RTA [2] | levels of ZEBRA (EBV switching to lytic phase) [3] | viral load of EBV (EBV)
1 | CCCNNC(=O)c1ccc(N2CCN(CCCCCCCC(=O)N[C@H](C(=O)N3C[C@H](O)C[C@H]3C(=O)N[C@@H](C)c3ccc(-c4scnc4C)cc3)C(C)(C)C)CC2)cc1 [YX968] | less likely to express ZEBRA | increased | significantly fewer cells left alive | no significant change | statistically significant increase | increases in expression | increased levels of ZEBRA | –
2 | CCCC(=O)[O-].[Na+] [NaB, sodium butyrate, reference compound] | less likely to express ZEBRA | – | – | – | – | – | – | –
3 | Nc1nc(O)c2ncn(COC(CO)CO)c2n1 [ganciclovir] | – | – | – | – | – | – | – | significantly lower

— patent US20250375441A1, “ONCOLYTIC THERAPY WITH A DUAL HDAC3 AND HDAC8 TARGETING AGENT” (priority 2024, published 2025)
